≈ marks a conversion by molar mass, not a printed value.
Assays:
4T1 [1] = assay: Cytotoxicity against mouse 4T1 cells after 48 hrs by MTT assay; type: functional, cell-based; conditions: 4T1, 48 h
[2] = Cytotoxicity against human HuTu 80 cells after 48 hrs by MTT assay; type: functional, cell-based; conditions: HuTu80, 48 h
Staphylococcus aureus [3] = assay: Antibacterial activity against Staphylococcus aureus ATCC 29213 after 20 hrs by CLSI broth microdilution method; type: functional
Staphylococcus aureus [4] = assay: Antibacterial activity against methicillin-resistant Staphylococcus aureus XJ 75302 after 20 hrs by CLSI broth microdilution method; type: functional
[5] = Cytotoxicity against human PANC1 cells after 48 hrs by MTT assay; type: functional, cell-based; conditions: PANC-1, 48 h
Staphylococcus aureus [6] = assay: Antibacterial activity against methicillin-resistant Staphylococcus aureus Mu50 ATCC 700699 after 20 hrs by CLSI broth microdilution method; type: functional
Staphylococcus aureus [7] = assay: Antibacterial activity against methicillin-resistant Staphylococcus aureus USA 300 LAC after 20 hrs by CLSI broth microdilution method; type: functional
4T1 [8] = assay: Induction of apoptosis in mouse 4T1 cells assessed as viable cells at 5 ug/ml after 48 hrs by Annexin V/Alexa Fuor 488/PI-staining based flow cytometric analysis (Rvb= 91.7%); type: functional; conditions: 4T1, 48 h, read-out: Activity
4T1 [9] = assay: Induction of apoptosis in mouse 4T1 cells assessed as necrotic cells at 5 ug/ml after 48 hrs by Annexin V/Alexa Fuor 488/PI-staining based flow cytometric analysis (Rvb=0.5%); type: functional
4T1 [10] = assay: Induction of apoptosis in mouse 4T1 cells assessed as increase in early and late apoptotic cells at 5 ug/ml after 48 hrs by Annexin V/Alexa Fuor 488/PI-staining based flow cytometric analysis relative to vehicle control; type: functional
4T1 [11] = assay: Induction of apoptosis in mouse 4T1 cells assessed as late apoptotic cells at 5 ug/ml after 48 hrs by Annexin V/Alexa Fuor 488/PI-staining based flow cytometric analysis (Rvb=3.5%); type: functional
4T1 [12] = assay: Induction of apoptosis in mouse 4T1 cells assessed as early apoptotic cells at 5 ug/ml after 48 hrs by Annexin V/Alexa Fuor 488/PI-staining based flow cytometric analysis (Rvb=4.4%); type: functional

Compound	IC50 (4T1 [1]) [µg/mL]	IC90 (4T1 [1]) [µg/mL]	IC50 [2] [µg/mL]	IC90 [2] [µg/mL]	MIC (Staphylococcus aureus [3]; ATCC 29213, 20 h) [µg/mL]	MIC (Staphylococcus aureus [4]; XJ 75302, 20 h) [µg/mL]	IC50 [5] [µg/mL]	IC90 [5] [µg/mL]	MIC (Staphylococcus aureus [6]; Mu50 ATCC 700699, 20 h) [µg/mL]	MIC (Staphylococcus aureus [7]) [µg/mL]	viability at 5 µg/mL (4T1 [8]) [%]	Activity (4T1 [9]) [%]	fold change (FC) (4T1 [10])	Activity (4T1 [11]) [%]	Activity (4T1 [12]) [%]	MIC (Staphylococcus aureus [3]) [µg/mL]	MIC (Staphylococcus aureus [4]) [µg/mL]	MIC (Staphylococcus aureus [6]) [µg/mL]
N#CC1=C(N)OC2=C(C(=O)CCC2)C1c1cc(F)cc(F)c1 (stereo not given)	164 (≈ 543 µM)	308 (≈ 1020 µM)	446 (≈ 1480 µM)	824 (≈ 2730 µM)	> 256	> 256	319 (≈ 1060 µM)	624 (≈ 2060 µM)	> 256	> 256	–	–	–	–	–	–	–	–
COc1ccc(C2C(C#N)=C(N)Oc3c2c(=O)oc2ccccc32)cc1OC (stereo not given)	107 (≈ 283 µM)	194 (≈ 516 µM)	132 (≈ 352 µM)	232 (≈ 618 µM)	> 256	> 256	168 (≈ 448 µM)	310 (≈ 825 µM)	> 256	> 256	–	–	–	–	–	–	–	–
CC(C)(O/N=C(\C(=O)N[C@@H]1C(=O)N2C(C(=O)[O-])=C(C[n+]3ccccc3)CS[C@H]12)c1csc(N)n1)C(=O)O [CEFTAZIDIME]	–	–	–	–	> 8	> 256	–	–	256 (≈ 468 µM)	64 (≈ 117 µM)	–	–	–	–	–	–	–	–
C[C@H]1COc2c(N3CCN(C)CC3)c(F)cc3c(=O)c(C(=O)O)cn1c23.C[C@H]1COc2c(N3CCN(C)CC3)c(F)cc3c(=O)c(C(=O)O)cn1c23.O [LEVOFLOXACIN]	–	–	–	–	< 0.125	4	–	–	4	8	–	–	–	–	–	–	–	–
CC(C)(C)c1ccc(C(c2c(O)c3ccccc3oc2=O)c2c(O)c3ccccc3oc2=O)cc1	24.6 (≈ 52.4 µM)	47.1 (≈ 101 µM)	31.1 (≈ 66.5 µM)	55.5 (≈ 119 µM)	16 (≈ 34.2 µM)	16 (≈ 34.2 µM)	28 (≈ 59.7 µM)	53.2 (≈ 113 µM)	16 (≈ 34.2 µM)	32 (≈ 68.3 µM)	–	–	–	–	–	–	–	–
CC1(C)CC(=O)C2=C(C1)OC(N)=C(C#N)C2c1cccc(C(F)(F)F)c1 (stereo not given)	287 (≈ 791 µM)	575 (≈ 1590 µM)	388 (≈ 1070 µM)	788 (≈ 2170 µM)	> 256	> 256	248 (≈ 685 µM)	503 (≈ 1390 µM)	> 256	> 256	–	–	–	–	–	–	–	–
N#CC1=C(N)OC2=C(C(=O)CCC2)C1c1cccc(Br)c1 (stereo not given)	157 (≈ 455 µM)	287 (≈ 830 µM)	281 (≈ 814 µM)	543 (≈ 1570 µM)	> 256	> 256	368 (≈ 1070 µM)	704 (≈ 2040 µM)	> 256	> 256	–	–	–	–	–	–	–	–
N#CC1=C(N)Oc2c(c(=O)oc3ccccc23)C1c1ccc(Br)cc1 (stereo not given)	96.2 (≈ 243 µM)	172 (≈ 435 µM)	140 (≈ 355 µM)	274 (≈ 692 µM)	> 256	> 256	176 (≈ 446 µM)	328 (≈ 829 µM)	> 256	> 256	–	–	–	–	–	–	–	–
CO/N=C(\C(=O)N[C@@H]1C(=O)N2C(C(=O)O)=C(CSc3nc(=O)c(O)nn3C)CS[C@H]12)c1csc(N)n1 [CEFTRIAXONE]	–	–	–	–	2 (≈ 3.61 µM)	> 256	–	–	256 (≈ 462 µM)	32 (≈ 57.7 µM)	–	–	–	–	–	–	–	–
CC1(C)CC(=O)C2=C(C1)OC(N)=C(C#N)C2c1ccccc1C#N (stereo not given)	249 (≈ 778 µM)	503 (≈ 1580 µM)	414 (≈ 1300 µM)	814 (≈ 2550 µM)	> 256	> 256	242 (≈ 757 µM)	512 (≈ 1600 µM)	> 256	> 256	–	–	–	–	–	–	–	–
O=c1oc2ccccc2c(O)c1C(c1ccc(Br)cc1)c1c(O)c2ccccc2oc1=O	19.3 (≈ 39.2 µM)	36.7 (≈ 74.7 µM)	29.7 (≈ 60.5 µM)	52.6 (≈ 107 µM)	16 (≈ 32.6 µM)	16 (≈ 32.6 µM)	31.8 (≈ 64.7 µM)	61.4 (≈ 125 µM)	8 (≈ 16.3 µM)	8 (≈ 16.3 µM)	30.2	0.3	>8	25.5	44	–	–	–
N#CC1=C(N)Oc2c(c(=O)oc3ccccc23)C1c1ccc(C#N)cc1 (stereo not given)	115 (≈ 336 µM)	208 (≈ 609 µM)	121 (≈ 355 µM)	221 (≈ 648 µM)	> 256	> 256	150 (≈ 439 µM)	286 (≈ 838 µM)	> 256	> 256	–	–	–	–	–	–	–	–
CCN1CCN(C(=O)N[C@@H](C(=O)N[C@@H]2C(=O)N3[C@@H]2SC(C)(C)[C@@H]3C(=O)O)c2ccccc2)C(=O)C1=O [PIPERACILLIN]	–	–	–	–	2 (≈ 3.86 µM)	> 128	–	–	> 128	8 (≈ 15.5 µM)	–	–	–	–	–	–	–	–
GENTAMICIN	–	–	–	–	–	–	–	–	–	0.25	–	–	–	–	–	0.12	64	32
COc1cc(C2C(C#N)=C(N)OC3=C2C(=O)CCC3)ccc1O (stereo not given)	114 (≈ 364 µM)	219 (≈ 700 µM)	208 (≈ 666 µM)	399 (≈ 1280 µM)	> 256	> 256	232 (≈ 744 µM)	462 (≈ 1480 µM)	> 256	> 256	–	–	–	–	–	–	–	–
O=c1oc2ccccc2c(O)c1C(c1ccc(F)c(Cl)c1)c1c(O)c2ccccc2oc1=O	22.9 (≈ 49.3 µM)	43.2 (≈ 92.9 µM)	32.6 (≈ 70.1 µM)	64.5 (≈ 139 µM)	16 (≈ 34.4 µM)	16 (≈ 34.4 µM)	30.8 (≈ 66.2 µM)	55.8 (≈ 120 µM)	8 (≈ 17.2 µM)	8 (≈ 17.2 µM)	–	–	–	–	–	–	–	–
CC1(C)CC(=O)C2=C(C1)OC(N)=C(C#N)C2c1cccc(Oc2ccccc2)c1 (stereo not given)	481 (≈ 1240 µM)	927 (≈ 2400 µM)	900 (≈ 2330 µM)	1700 (≈ 4400 µM)	> 256	> 256	383 (≈ 991 µM)	759 (≈ 1960 µM)	> 256	> 256	–	–	–	–	–	–	–	–

Reference: ChEMBL document CHEMBL3632603, “Synthesis of biscoumarin and dihydropyran derivatives with promising antitumor and antibacterial activities” (Bioorg Med Chem Lett, 2015)
